From US20230233576A1, “ECLITASERTIB FOR USE IN TREATING CONDITIONS INVOLVING SYSTEMIC HYPERINFLAMMATORY RESPONSE” (priority 2020, published 2023)

Test system: adult participants hospitalized for severe COVID-19
Assay: Phase 1b severe COVID-19 study: ECG abnormalities (PCSA)
Assay type: in vivo, human
Settings: 600 mg
Method: Physical examination including lung auscultation and assessment of consciousness, vital sign, electrocardiogram (ECG) parameters were measured per protocol.
For laboratory parameters (hematology, clinical chemistry, and urinalysis), vital signs, and ECG, incidences of potentially clinically significant abnormality (PCSA) values, actual values and change from baseline were summarized by treatment group.
For all laboratory, vital signs and ECG parameters, raw data and change from baseline were summarized in descriptive statistics by treatment group and scheduled time of measurement, with the exception of AST, ALT and alkaline phosphatase: instead of summarizing data in descriptive statistics, participants' profiles were presented through graphics by treatment group and with a color code to identify sites. The reason was that blood samples were processed by local laboratories with different normal ranges. For the rest of clinical laboratory these parameters it is reasonable to pool data as they are standard procedure and no significant differences in normal ranges were expected.

[1] = individual participant 70.0 kg, Discharge Before Day 15
[2] = individual participant 87.2 kg, Discharge Before Day 15
[3] = individual participant 120.0 kg, Day 15
[4] = individual participant 125.0 kg, Discharge Before Day 15

CN1C(=O)[C@@H](NC(=O)c2nnc(Cc3ccccc3)[nH]2)COc2cccnc21 [RIPKl Inhibitor]
HR (bpm) Delta (change from baseline) [1]: −25 bpm
HR (bpm) Value [1]: 76 bpm
PR % change from baseline [1]: 0.0%
PR (ms) Value [1]: 120 ms
QRS % change from baseline [1]: −38%
QRS (ms) Value [1]: 100 ms
QT (ms) Delta (change from baseline) [1]: 100 ms
QT (ms) Value [1]: 460 ms
QTcB (ms) Delta (change from baseline) [1]: 50 + ms
QTcB (ms) Value [1]: 517 ++ ms
QTcF (ms) Delta (change from baseline) [1]: 75 ++ ms
QTcF (ms) Value [1]: 495 ++ ms
HR (bpm) Delta (change from baseline) [2]: 18 bpm
HR (bpm) Value [2]: 86 bpm
PR % change from baseline [2]: 0.0%
PR (ms) Value [2]: 150 ms
QRS % change from baseline [2]: 25.0%
QRS (ms) Value [2]: 100 ms
QT (ms) Delta (change from baseline) [2]: 30 ms
QT (ms) Value [2]: 370 ms
QTcB (ms) Delta (change from baseline) [2]: 81 ++ ms
QTcB (ms) Value [2]: 443 ms
QTcF (ms) Delta (change from baseline) [2]: 63 ++ ms
QTcF (ms) Value [2]: 417 ms
HR (bpm) Delta (change from baseline) [3]: 0 bpm
HR (bpm) Value [3]: 69 bpm
PR % change from baseline [3]: 31.9%
PR (ms) Value [3]: 124 ms
QRS % change from baseline [3]: −28%
QRS (ms) Value [3]: 82 ms
QT (ms) Delta (change from baseline) [3]: 4 ms
QT (ms) Value [3]: 482 ms
QTcB (ms) Delta (change from baseline) [3]: 4 ms
QTcB (ms) Value [3]: 518 ++ ms
HR (bpm) Delta (change from baseline) [4]: −6 bpm
HR (bpm) Value [4]: 77 bpm
PR % change from baseline [4]: 0.0%
PR (ms) Value [4]: 160 ms
QRS % change from baseline [4]: −4.8%
QRS (ms) Value [4]: 80 ms
QT (ms) Delta (change from baseline) [4]: 118 ms
QT (ms) Value [4]: 466 ms
QTcB (ms) Delta (change from baseline) [4]: 121 ++ ms
QTcB (ms) Value [4]: 530 ++ ms
